Experimental findings from patent publication US6352833B1, “Methods for discovery of vasoactive compounds for the nitric oxide-cyclic GMP signal pathway” (priority 1999, dated 2002) are described below.

Assay [1] deals with Gαq/Gα11. Put plainly: Immunoprecipitation of Gαq/Gα11 from 32P-labeled platelets. It counts as cell-based, human. The note with it: 32P-labeled platelets treated with compound. From the text: (§1) In separate immunoprecipitation experiments, we also examined whether Gαq/Gα11 or its effector PLCβ, were phosphorylated in response to NO or cGMP. Anti-Gαq/Gα11 antibodies were obtained from D. Manning (University of Pennsylvania; Woolkalis, M. J. et al., 1986, J. Biol. Chem. 261:3408-3413).

The target of assay [2] is T1, TXA2 receptor (Homo sapiens, UniProt P21731).
T1 construct: HEL cells, which contain high densities of the platelet TXA2 receptor; endogenous in cells; host or cells: HEL cells
T1 sequence (P21731 1-343): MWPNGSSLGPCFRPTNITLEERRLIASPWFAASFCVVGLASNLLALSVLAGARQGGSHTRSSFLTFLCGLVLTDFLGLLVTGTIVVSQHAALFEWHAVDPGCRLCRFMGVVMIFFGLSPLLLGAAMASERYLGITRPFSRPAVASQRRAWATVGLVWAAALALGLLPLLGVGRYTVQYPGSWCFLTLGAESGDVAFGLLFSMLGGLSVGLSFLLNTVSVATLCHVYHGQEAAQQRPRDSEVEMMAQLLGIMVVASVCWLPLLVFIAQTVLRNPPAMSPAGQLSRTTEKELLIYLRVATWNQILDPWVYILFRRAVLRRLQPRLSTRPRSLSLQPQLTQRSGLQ
Put plainly: In vivo phosphorylation of TXA2 receptors in 32P-labeled HEL cells. It counts as cell-based. On the procedure: To examine whether cGMP can lead to phosphorylation of TXA2 receptors in vivo, studies were performed using HEL cells, which contain high densities of the platelet TXA2 receptor (Allan, C. J. et al., 1996, J. Pharmacol. Exp. Ther. 277:1132-1139; Mayeux, P. R. et al., 1989, J. Pharmacol. Exp. Ther. 250:923-927).
HEL cells were labeled with ^32P (Mendelsohn, M. E. et al., 1991, supra) and then exposed to buffer alone (10 minutes), U46619 (5 μM, 10 minutes), or 8-Br-cGMP (10 mM, 15 minutes). Reactions were terminated by addition of ice-cold TEB buffer: 20 mM Tris-Cl, pH 7.4, 5 mM EGTA, 0.128 mg/ml phenylmethylsulfonyl fluoride, 0.15 mg/ml benzamidine Cl, followed by preparation of solubilized TXA2 receptor fractions in CHAPS buffer: 20 mM Tris-Cl, pH 7.4, 5 mM EGTA, 25% glycerol, 0.128 mg/ml phenylmethylsulfonyl fluoride, 0.15 mg/ml benzamidine Cl, 10 mM CHAPS (Schror, K. et al., 1995, Biochem. Pharmacol. 49: 921-927). TXA2 receptor fractions were then purified on and eluted from TXA2 antibody affinity beads, resolved by SDS-PAGE, and transferred to nitrocellulose. Receptor was quantified by immunoblotting and phosphorylation was quantitated by PhosphorImager analysis (Mendelsohn, M. E. et al., 1991, supra). […]

For assay [3], the system named is TXA2-specific GTPase in human platelet membranes. In words: TXA2 receptor-coupled GTPase activity in human platelet membranes. In kind it is biochemical. On the procedure: Platelets were prepared from plateletpheresis units as described (Benka, M. L. et al., 1995, supra; Zhu, Y. et al., 1994, supra).
TXA2-stimulated GTPase activity was measured in platelet membranes by initiating reactions by the addition of 20-45 μg of platelet membranes to tubes in the absence or presence of 10 μM of the thromboxane analog, U46619, (Benka, M. L. et al., The MBL Physiology Course, Busa, W. B. & Mendelsohn, M. E., 1995, FEBS Lett. 363: 49-52). The final reaction mixture (total volume=100 μl) contained 0.4 μM GTP, including 0.6-0.9 μCi of [γ-^32P]GTP(1.5-2×10^6 dpm), as well as 100 mM NaCl, 0.1 mM EGTA, 2 mM MgCl2, 1 mM dithiothreitol, 0.1 mM ATP, 5 mM phosphocreatine, 100 units/ml creatine phosphokinase, 0.2% bovine serum albumin, 50 mM triethanolamine HCl, pH 7.4, and indicated concentrations of agonist.
[…] GTPase reactions were terminated with 5% activated charcoal/20 mM phosphoric acid, and high affinity GTPase activity was measured and calculated (Shenker, A. et al., 1991, J. Biol. Chem. 268: 26011-26017; Benka et al., supra).

For assay [4], the system named is PLCβ. In words: PLCβ phosphorylation in platelets (PLCβ antibodies). In kind it is cell-based, human. Conditions: monoclonal and polyclonal PLCβ antibodies.
Description: as §1

For assay [5], the system named is thrombin receptor. Put plainly: Thrombin receptor-mediated vascular smooth muscle cell activation. In kind it is cell-based. Conditions: FIG. 6A-6C; effect reversed by inhibition of G kinase. From the text:
The activation of vascular smooth muscle cells by thrombin receptor is inhibited by nitric oxide (FIG. 6A). […] This effect is reversed by inhibition by G kinase.

As to `CC(=O)N[C@@H](CSN=O)C(=O)O` [S-nitroso-N-acetylcysteine], the “Gαq/Gα11 G protein phosphorylation” value in assay [1] is on record as “did not demonstrate any significant G protein phosphorylation”.
As for `CCCCC[C@H](O)/C=C/[C@@H]1[C@@H](C/C=C\CCCC(=O)O)[C@H]2CO[C@@H]1C2` [U46619], the TXA2 receptor phosphorylation entry in assay [2] (5 μM, 10 minutes) is given as “phosphorylated”. Also, the “average increase in GTPase activity (stimulation of TXA2-specific GTPase)” value in assay [3] (untreated platelet membranes, 10 μM U46619, n=three experiments in triplicate) is reported as 5.5±1.3 pmol of 32P/min/mg platelet pr.
As to `Nc1nc2c(ncn2[C@@H]2O[C@@H]3COP(=O)(O)O[C@H]3[C@H]2O)c(=O)[nH]1` [cyclic GMP], the “phosphorylation of PLCβ” value in assay [4] is on record as “no increase in phosphorylation of PLCβ”. For the same molecule, the “inhibition of thrombin receptor-mediated vascular smooth muscle cell activation” value in assay [5] is reported as “inhibition”.
The IC50 is the concentration at which inhibition is half-maximal. `Nc1nc2c(nc(Br)n2[C@@H]2O[C@@H]3COP(=O)(O)O[C@H]3[C@H]2O)c(=O)[nH]1` [8-Br-cGMP, 8-bromo-cyclic GMP]: in assay [2] (10 mM, 15 minutes), the TXA2 receptor phosphorylation result was “clear and significant increases in TXA2 receptor phosphorylation to a level comparable with agonist-induced phosphorylation”. Further, in assay [3] (platelet membranes pretreated 10 minutes at room temperature before U46619 stimulation, n=3 experiments in triplicate, read-out: mean IC50, inhibition of U46619-stimulated GTPase activity), the IC50 came to 0.075 µM. Besides, in assay [3] (pretreatment with 500 μm 8-Br-cGMP, n=4), the “decrease of basal platelet membrane GTPase activity” value is given as 8±9%. Also, the “Gαq/Gα11 G protein phosphorylation” value in assay [1] is “did not demonstrate any significant G protein phosphorylation”.
Turning to `[N]=O` [nitric oxide], the “phosphorylation of PLCβ” value in assay [4] is given as “no increase in phosphorylation of PLCβ”. Moreover, the “inhibition of thrombin receptor-mediated vascular smooth muscle cell activation” value in assay [5] is listed as “inhibited”.
